US5563176A (priority 1994, dated 1996)
Where two headings read alike, the source gives them in different places.

Assays:
[1] = tested on: human lung adenocarcinoma MV522; test: animal or person; conditions: MV522, ip, read-out: life span
KB parent cells = test: sensitivity of mdr lines, KB parent; format: cell-based
L1210 parent cells = test: sensitivity of mdr lines, L1210 parent; format: cell-based; conditions: Mus musculus
SL-2, murine (thymic) = test: inhibition of thymidine incorporation after two hour exposure, SL-2; format: cell-based; conditions: Mus musculus, 2 h; Table 1; SL-2, two hour exposure
Experimental: To assess cytotoxic effects, various concentrations of illudins were added to cultures of cells for 48 hours, then cell growth/viability was determined by trypan blue exclusion. As an alternative to 48 hour continuous exposure studies, cells were plated in liquid culture in 96 well plates, exposed to various concentrations of illudins for 2 hours, pulsed with [^3 H]-thymidine for one to two hours and harvested onto glass filters. The filter papers were added to vials containing scintillation fluid and residual radioactivity determined in a beta (scintillation) counter.
two hour exposure to the toxins (N - 3).

8392 cells (B-cell) = test: cells; format: cell-based; conditions: 2 h
[2] = tested on: MCF7-wt parent (Breast) cells; test: sensitivity of mdr lines, MCF7-wt parent; format: cell-based; conditions: Homo sapiens; MCF7-wt Parent; read-out: Sensitivity of mdr lines
HL60 cells = test: cells; format: cell-based; conditions: Homo sapiens, HL-60, 48 h, read-out: 48 hour IC50
MV522 cells = test: cells; format: cell-based, human; conditions: Homo sapiens, MV522, 2 h, read-out: Two hour IC50
MCF-7, breast = test: cells; format: cell-based, human; conditions: Homo sapiens, MCF7, 2 h
HL60 cells (myeloid) = test: cells; format: cell-based, human; conditions: Homo sapiens, HL-60, 2 h

**Q.** `CC1=C2C(=O)C(C)(C)C=C2C(=O)[C@](C)(O)C12CC2` [Dehydroilludin M] was tested. Which response vs control in vivo at 30 mg/kg [1] did it give?
**A.** Its response vs control in vivo at 30 mg/kg is 163 ± 6%.

**Q.** And the IC50 (KB parent cells)?
**A.** Its IC50 is 125 ± 14 nM.

**Q.** And the IC50 (L1210 parent cells)?
**A.** Its IC50 is 62 ± 8 nM.

**Q.** What about the IC50 (SL-2, murine (thymic)) of the same molecule?
**A.** Its IC50 is 5240 nM.

**Q.** And the IC50 (8392 cells (B-cell))?
**A.** The IC50 was greater than 38000 nM.

**Q.** And the IC50 (8392 cells (B-cell); read-out: Two hour IC50)?
**A.** The IC50 was 61300 nM.

**Q.** And the IC50 [2]?
**A.** Its IC50 is 92 ± 15 nM.

**Q.** What about the IC50 (HL60 cells) of the same molecule?
**A.** The IC50 was 296 ± 66 nM.

**Q.** What about the IC50 (MV522 cells) of the same molecule?
**A.** The IC50 was 1830 nM.

**Q.** What about the IC50 (MCF-7, breast) of the same molecule?
**A.** The IC50 was 653 ± 65 nM.

**Q.** And the IC50 (HL60 cells (myeloid))?
**A.** The IC50 was 246 ± 19 nM.

**Q.** What about the IC50 (HL60 cells (myeloid); read-out: Two hour IC50) of the same molecule?
**A.** The IC50 was 377 ± 81 nM.
